Test results taken from patent US11051515B2, “3-acyl-benzamides and their use as herbicides” (Bayer Aktiengesellschaft, priority 2017, dated 2021).

How the values were obtained:
[1] = system: CYPES; experiment: Pre-emergence action against CYPES; format: in vivo, Cyperus esculentus; conditions: pre-emergence, dosage 320 g/ha, scored visually after 3 weeks vs untreated controls
In short: (§1)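 Seeds sown in sandy loam in wood-fiber pots and covered with soil. Greenhouse growth; visual damage scored after 3 weeks versus untreated controls (100% = dead, 0% = like control).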

[2] = system: ECHCG; experiment: Pre-emergence action against ECHCG; format: in vivo, Echinochloa crus-galli
In short: as §1

[3] = system: SETVI; experiment: Pre-emergence action against SETVI; format: in vivo, Setaria viridis; conditions: pre-emergence, dosage 320 g/ha, scored visually after 3 weeks vs untreated controls
In short: as §1

[4] = system: ABUTH; experiment: Pre-emergence action against ABUTH; format: in vivo, Abutilon theophrasti
In short: as §1

[5] = system: AMARE; experiment: Pre-emergence action against AMARE; format: in vivo, Amaranthus retroflexus; conditions: for Herbicidal efficacy against AMARE: 20 g of a.i./ha
In short: as §1

[6] = system: MATIN; experiment: Pre-emergence action against MATIN; format: in vivo, Matricaria inodora; conditions: for Herbicidal efficacy against MATIN: 20 g of a.i./ha
In short: as §1

[7] = system: POLCO; experiment: Pre-emergence action against POLCO; format: in vivo, Polygonum convolvulus; conditions: Dosage 320 g/ha, pre-emergence
In short: as §1

[8] = system: STEME; experiment: Pre-emergence action against STEME; format: in vivo, Stellaria media
In short: as §1

[9] = system: VIOTR; experiment: Pre-emergence action against VIOTR; format: in vivo, Viola tricolor; conditions: for Herbicidal efficacy against VIOTR: 20 g of a.i./ha
In short: as §1

[10] = system: VERPE; experiment: Pre-emergence action against VERPE; format: in vivo, Veronica persica
In short: as §1

[11] = system: ALOMY; experiment: Post-emergence action against ALOMY; format: in vivo, Alopecurus myosuroides
Experimental: Seeds of monocotyledonous and dicotyledonous weed and crop plants are laid out in sandy loam soil in wood-fiber pots, covered with soil and cultivated in a greenhouse under good growth conditions. 2 to 3 weeks after sowing, the test plants are treated at the one-leaf stage. The compounds of the invention, formulated in the form of wettable powders (WP) or as emulsion concentrates (EC), are then sprayed onto the green parts of the plants in the form of an aqueous suspension or emulsion at a water application rate equating to […], with addition of 0.2% wetting agent. After the test plants have been left to stand in the greenhouse under optimal growth conditions for about 3 weeks, the action of the preparations is assessed visually in comparison to untreated controls (herbicidal action in percent (%): 100% activity=the plants have died, 0% activity=like control plants). […] At the same time, inventive compounds leave Gramineae crops such as barley, wheat, rye, millet/Sorghum, corn or rice virtually undamaged when applied post-emergence, even at high active ingredient dosages. In addition, some substances are also harmless to dicotyledonous crops such as soya, cotton, oilseed rape, sugar beet or potatoes. Some of the compounds according to the invention have high selectivity and are therefore suitable for controlling unwanted vegetation in agricultural crops by the post-emergence method. The data of Tables B18 to B34 below illustrate, in an exemplary manner, the […] herbicidal action of the compounds according to the invention, the herbicidal activity being stated in percent.

[12] = system: AVEFA; experiment: Post-emergence action against AVEFA; format: in vivo, Avena fatua; conditions: post-emergence, dosage 80 g/ha, visual assessment about 3 weeks after treatment vs untreated controls
In short: (§2)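 Post-emergence foliar spray on greenhouse plants at the one-leaf stage, using wettable-powder or emulsion-concentrate formulations in water (600 to […], plus 0.2% wetting agent). Damage scored by eye roughly 3 weeks later against untreated plants: 0% = like control, 100% = dead.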

[13] = system: ECHCG; experiment: Post-emergence action against ECHCG; format: in vivo, Echinochloa crus-galli; conditions: post-emergence, dosage 80 g/ha, visual assessment about 3 weeks after treatment vs untreated controls
In short: as §2

[14] = system: SETVI; experiment: Post-emergence action against SETVI; format: in vivo, Setaria viridis; conditions: post-emergence, dosage 80 g/ha, visual assessment about 3 weeks after treatment vs untreated controls
In short: as §2

[15] = system: ABUTH; experiment: Post-emergence action against ABUTH; format: in vivo, Abutilon theophrasti
In short: as §2

[16] = system: AMARE; experiment: Post-emergence action against AMARE; format: in vivo, Amaranthus retroflexus; conditions: post-emergence, dosage 80 g/ha, visual assessment about 3 weeks after treatment vs untreated controls
In short: as §2

[17] = system: MATIN; experiment: Post-emergence action against MATIN; format: in vivo, Matricaria inodora; conditions: for Herbicidal efficacy against MATIN: Table V17, post-emergence, 5 g of a.i./ha
In short: as §2

[18] = system: PHBPU; experiment: Post-emergence action against PHBPU; format: in vivo, Pharbitis purpurea; conditions: post-emergence, dosage 80 g/ha
In short: as §2

[19] = system: POLCO; experiment: Post-emergence action against POLCO; format: in vivo, Polygonum convolvulus
In short: as §2

[20] = system: STEME; experiment: Post-emergence action against STEME; format: in vivo, Stellaria media; conditions: post-emergence, dosage 80 g/ha
In short: as §2

[21] = system: VIOTR; experiment: Post-emergence action against VIOTR; format: in vivo, Viola tricolor; conditions: for Herbicidal efficacy against VIOTR: Table V17, post-emergence, 5 g of a.i./ha
In short: as §2

[22] = system: VERPE; experiment: Post-emergence action against VERPE; format: in vivo, Veronica persica; conditions: dosage 80 g/ha
In short: as §2

[23] = system: ALOMY; experiment: Pre-emergence action against ALOMY; format: in vivo, Alopecurus myosuroides; conditions: dosage 320 g/ha; pre-emergence; scored visually after 3 weeks vs untreated controls; 100% = plants have died, 0% = like control plants
In short: as §1

[24] = system: AVEFA; experiment: Pre-emergence action against AVEFA; format: in vivo, Avena fatua; conditions: dosage 320 g/ha, scored visually after 3 weeks vs untreated controls
In short: as §1

[25] = system: PHBPU; experiment: Pre-emergence action against PHBPU; format: in vivo, Pharbitis purpurea; conditions: Dosage 320 g/ha, pre-emergence
In short: as §1

[26] = system: CYPES; experiment: Post-emergence action against CYPES; format: in vivo, Cyperus esculentus; conditions: for Post-emergence action against CYPES (herbicidal action in percent): dosage 80 g/ha, visual assessment about 3 weeks after treatment vs untreated controls
In short: as §2

[27] = Table V8, pre-emergence, 20 g of a.i./ha
[28] = pre-emergence, dosage 320 g/ha, scored visually after 3 weeks vs untreated controls
[29] = Table V20, post-emergence, 80 g of a.i./ha
[30] = post-emergence, dosage 80 g/ha, visual assessment about 3 weeks after treatment vs untreated controls

CC(=O)c1c(S(C)(=O)=O)ccc(C(=O)Nc2nnnn2C)c1C [1-7]
90%: pest or weed control at 320 g/ha ([8]; Stellaria media, 504 h, Dosage 320 g/ha, pre-emergence) | pest or weed control at 80 g/ha ([13]; Echinochloa crus-galli, 504 h, read-out: Post-emergence action against ECHCG (herbicidal action in percent)) | pest or weed control at 80 g/ha ([14]; Setaria viridis, 504 h, read-out: Post-emergence action against SETVI (herbicidal action in percent)) | pest or weed control at 80 g/ha ([15]; Abutilon theophrasti, 504 h, post-emergence, dosage 80 g/ha, visual assessment about 3 weeks after treatment vs untreated controls, read-out: Post-emergence action against ABUTH (herbicidal action in percent))
80%: pest or weed control at 320 g/ha ([7]; Fallopia convolvulus, 504 h) | pest or weed control at 80 g/ha ([11]; Alopecurus myosuroides, 504 h, Dosage 80 g/ha, post-emergence) | pest or weed control at 80 g/ha ([12]; Avena fatua, 504 h, read-out: Post-emergence action against AVEFA (herbicidal action in percent)) | pest or weed control at 80 g/ha ([19]; Fallopia convolvulus, 504 h, post-emergence, dosage 80 g/ha)
100: Herbicidal efficacy against AMARE ([5]; Table V8, pre-emergence) | Herbicidal efficacy against VIOTR ([9]; Table V5, pre-emergence) | Herbicidal efficacy against VIOTR ([9]; Table V8, pre-emergence) | Herbicidal efficacy against VERPE [10, 27] | Herbicidal efficacy against MATIN [17] | Herbicidal efficacy against VIOTR [21]
70: Herbicidal efficacy against ECHCG [2, 27]
90: Herbicidal efficacy against MATIN ([6]; Table V5, pre-emergence) | Herbicidal efficacy against MATIN ([6]; Table V8, pre-emergence) | Herbicidal efficacy against STEME [8, 27]
100%: pest or weed control at 320 g/ha ([1]; Cyperus esculentus, 504 h, read-out: Pre-emergence action against CYPES (herbicidal activity)) | pest or weed control at 320 g/ha ([2]; Echinochloa crus-galli, 504 h, pre-emergence, dosage 320 g/ha, scored visually after 3 weeks vs untreated controls, read-out: Pre-emergence action against ECHCG (herbicidal activity)) | pest or weed control at 320 g/ha ([3]; Setaria viridis, 504 h, read-out: SETVI (Table B8, pre-emergence herbicidal activity)) | pest or weed control at 320 g/ha ([4]; Abutilon theophrasti, 504 h, pre-emergence, dosage 320 g/ha, scored visually after 3 weeks vs untreated controls, read-out: Pre-emergence action against ABUTH (herbicidal activity)) | pest or weed control at 320 g/ha ([5]; Amaranthus retroflexus, 504 h, pre-emergence, dosage 320 g/ha, scored visually after 3 weeks vs untreated controls, read-out: Pre-emergence action against AMARE (herbicidal activity)) | pest or weed control at 320 g/ha ([6]; Tripleurospermum inodorum, 504 h, Dosage 320 g/ha, pre-emergence) | pest or weed control at 320 g/ha ([9]; Viola tricolor, 504 h, Dosage 320 g/ha, pre-emergence) | pest or weed control at 320 g/ha ([10]; Veronica persica, 504 h, Dosage 320 g/ha, pre-emergence) | pest or weed control at 80 g/ha ([16]; Amaranthus retroflexus, 504 h, read-out: Post-emergence action against AMARE (herbicidal action in percent)) | pest or weed control at 80 g/ha ([17]; Tripleurospermum inodorum, 504 h, post-emergence, dosage 80 g/ha, visual assessment about 3 weeks after treatment vs untreated controls, read-out: Post-emergence action against MATIN (herbicidal action in percent)) | pest or weed control at 80 g/ha ([18]; Ipomoea purpurea, 504 h) | pest or weed control at 80 g/ha ([20]; Stellaria media, 504 h) | pest or weed control at 80 g/ha ([21]; Viola tricolor, 504 h, post-emergence, dosage 80 g/ha) | pest or weed control at 80 g/ha ([22]; Veronica persica, 504 h)

CCn1nnnc1NC(=O)c1ccc(S(C)(=O)=O)c(C(=O)C2CC2)c1C [2-9]
100: Herbicidal efficacy against ABUTH ([4]; Table V7, pre-emergence, 20 g of a.i./ha) | Herbicidal efficacy against AMARE ([5]; Table V13, pre-emergence) | Post-emergence action against PHBPU [18] | Herbicidal efficacy against POLCO [19, 29] | Post-emergence action against POLCO ([19]; post-emergence, dosage 80 g/ha) | Post-emergence action against STEME [20] | Herbicidal efficacy against VIOTR [21] | Post-emergence action against VIOTR ([21]; post-emergence, dosage 80 g/ha) | Post-emergence action against VERPE [22]
90: Herbicidal efficacy against VIOTR ([9]; Table V7, pre-emergence) | Herbicidal efficacy against VIOTR ([9]; Table V13, pre-emergence) | Herbicidal efficacy against ALOMY [11, 29] | Herbicidal efficacy against CYPES [26, 29] | Herbicidal efficacy against ABUTH [15, 29] | Herbicidal efficacy against MATIN [17]
80%: Pre-emergence action against POLCO [7]
80: Herbicidal efficacy against MATIN ([6]; Table V7, pre-emergence)
100%: Pre-emergence action against AVEFA (herbicidal activity) [24] | Pre-emergence action against ECHCG (herbicidal activity) [2, 28] | SETVI (Table B8, pre-emergence herbicidal activity) [3] | Pre-emergence action against ABUTH (herbicidal activity) [4, 28] | Pre-emergence action against AMARE (herbicidal activity) [5, 28] | Pre-emergence action against MATIN ([6]; Dosage 320 g/ha, pre-emergence) | Pre-emergence action against VIOTR ([9]; Dosage 320 g/ha, pre-emergence) | Pre-emergence action against VERPE ([10]; Dosage 320 g/ha, pre-emergence) | Post-emergence action against AVEFA (herbicidal action in percent) [12] | Post-emergence action against AMARE (herbicidal action in percent) [16] | Post-emergence action against MATIN (herbicidal action in percent) [17, 30]
90%: Pre-emergence action against ALOMY (herbicidal activity in percent) [23] | Pre-emergence action against CYPES (herbicidal activity) [1] | Pre-emergence action against PHBPU [25] | Post-emergence action against ALOMY ([11]; Dosage 80 g/ha, post-emergence) | Post-emergence action against CYPES (herbicidal action in percent) [26] | Post-emergence action against ECHCG (herbicidal action in percent) [13] | Post-emergence action against SETVI (herbicidal action in percent) [14] | Post-emergence action against ABUTH (herbicidal action in percent) [15, 30]

CCCn1nnnc1NC(=O)c1ccc(C(F)(F)F)c(C(=O)C2CC2)c1C [3-18]
100%: Pre-emergence action against ECHCG (herbicidal activity) [2, 28] | SETVI (Table B8, pre-emergence herbicidal activity) [3] | Pre-emergence action against ABUTH (herbicidal activity) [4, 28] | Pre-emergence action against AMARE (herbicidal activity) [5, 28] | Pre-emergence action against MATIN ([6]; Dosage 320 g/ha, pre-emergence) | Pre-emergence action against STEME ([8]; Dosage 320 g/ha, pre-emergence) | Pre-emergence action against VIOTR ([9]; Dosage 320 g/ha, pre-emergence) | Post-emergence action against SETVI (herbicidal action in percent) [14]
90: Post-emergence action against PHBPU [18]
80%: Pre-emergence action against ALOMY (herbicidal activity in percent) [23] | Pre-emergence action against AVEFA (herbicidal activity) [24] | Post-emergence action against ALOMY ([11]; Dosage 80 g/ha, post-emergence) | Post-emergence action against AVEFA (herbicidal action in percent) [12] | Post-emergence action against ECHCG (herbicidal action in percent) [13] | Post-emergence action against ABUTH (herbicidal action in percent) [15, 30]
90%: Pre-emergence action against CYPES (herbicidal activity) [1] | Pre-emergence action against VERPE ([10]; Dosage 320 g/ha, pre-emergence) | Post-emergence action against CYPES (herbicidal action in percent) [26] | Post-emergence action against MATIN (herbicidal action in percent) [17, 30]
80: Post-emergence action against POLCO ([19]; post-emergence, dosage 80 g/ha) | Post-emergence action against VERPE [22]
100: Post-emergence action against STEME [20] | Post-emergence action against VIOTR ([21]; post-emergence, dosage 80 g/ha)
